What was measured:
Assay in all cases: relative viability (nuclei count vs DMSO), 5 days (fraction); higher = more cells survive
Pazopanib + Foretinib = compound: Cc1ccc(Nc2nccc(N(C)c3ccc4c(C)n(C)nc4c3)n2)cc1S(N)(=O)=O [Pazopanib] + COc1cc2c(Oc3ccc(NC(=O)C4(C(=O)Nc5ccc(F)cc5)CC4)cc3F)ccnc2cc1OCCCN1CCOCC1 [Foretinib] (partner 0.25 µM)
Procedure, shortened: (§1)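 Cells from lung cancer lines were seeded into 1536-well plates and, one day later, dosed by pin tool. Treatments were either a single drug or a fixed dose of an anchor drug with five library-drug doses (not always all listed) in √10 steps. After 5 days, nuclei were stained in a one-step fixation (final 0.05% Triton X-100, 1% formaldehyde, 1 ug/ml Hoechst) and counted on 4× images, and relative viability is the treated-to-vehicle nuclei ratio, as the median of duplicate plates.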

Ponatinib + Dasatinib = compound: Cc1ccc(C(=O)Nc2ccc(CN3CCN(C)CC3)c(C(F)(F)F)c2)cc1C#Cc1cnc2cccnn12 [Ponatinib] + Cc1nc(Nc2ncc(C(=O)Nc3c(C)cccc3Cl)s2)cc(N2CCN(CCO)CC2)n1 [Dasatinib] (partner 0.075 µM)
Procedure, shortened: as §1

Pazopanib + Trametinib = compound: Cc1ccc(Nc2nccc(N(C)c3ccc4c(C)n(C)nc4c3)n2)cc1S(N)(=O)=O [Pazopanib] + CC(=O)Nc1cccc(-n2c(=O)n(C3CC3)c(=O)c3c(Nc4ccc(I)cc4F)n(C)c(=O)c(C)c32)c1 [Trametinib] (partner 0.02 µM)
Procedure, shortened: as §1

Pazopanib + Pictilisib = compound: Cc1ccc(Nc2nccc(N(C)c3ccc4c(C)n(C)nc4c3)n2)cc1S(N)(=O)=O [Pazopanib] + CS(=O)(=O)N1CCN(Cc2cc3nc(-c4cccc5[nH]ncc45)nc(N4CCOCC4)c3s2)CC1 [Pictilisib] (partner 1 µM)
Procedure, shortened: as §1

Row | Cell Line | relative viability (Pazopanib + Foretinib; first compound 0.01 µM) | relative viability (Pazopanib + Foretinib; first compound 0.03162 µM) | relative viability (Pazopanib + Foretinib; first compound 0.1 µM) | relative viability (Pazopanib + Foretinib; first compound 0.3162 µM) | relative viability (Pazopanib + Foretinib; first compound 1 µM) | relative viability (Ponatinib + Dasatinib; first compound 0.002 µM) | relative viability (Ponatinib + Dasatinib; first compound 0.006325 µM) | relative viability (Ponatinib + Dasatinib; first compound 0.06325 µM) | relative viability (Ponatinib + Dasatinib; first compound 0.2 µM) | relative viability (Pazopanib + Trametinib; first compound 0.01 µM) | relative viability (Pazopanib + Trametinib; first compound 0.03162 µM) | relative viability (Pazopanib + Trametinib; first compound 0.1 µM) | relative viability (Pazopanib + Trametinib; first compound 0.3162 µM) | relative viability (Pazopanib + Trametinib; first compound 1 µM) | relative viability (Pazopanib + Pictilisib; first compound 0.01 µM) | relative viability (Pazopanib + Pictilisib; first compound 0.03162 µM) | relative viability (Pazopanib + Pictilisib; first compound 0.1 µM) | relative viability (Pazopanib + Pictilisib; first compound 0.3162 µM) | relative viability (Pazopanib + Pictilisib; first compound 1 µM)
1 | SW 1573 | 0.83 | 0.938 | 0.934 | 0.998 | 0.998 | 0.451 | 0.507 | 0.466 | 0.485 | 0.604 | 0.671 | 0.604 | 0.649 | 0.494 | 0.412 | 0.531 | 0.514 | 0.632 | 0.537
2 | ChaGo-K-1 | 0.934 | 0.909 | 1.01 | 0.884 | 0.946 | 0.487 | 0.567 | 0.488 | 0.509 | 0.908 | 0.75 | 0.904 | 0.905 | 0.901 | 0.543 | 0.876 | 0.632 | 0.613 | 0.759
3 | COR-L 105 | 0.926 | 0.87 | 1.15 | 1.04 | 1.18 | 0.314 | 0.41 | 0.344 | 0.341 | 0.468 | 0.406 | 0.438 | 0.427 | 0.58 | 0.4 | 0.473 | 0.411 | 0.443 | 0.417
4 | NCI-H1975 | 0.911 | 0.945 | 0.997 | 1.03 | 1.03 | 0.28 | 0.355 | 0.318 | 0.267 | 0.277 | 0.323 | 0.369 | 0.373 | 0.401 | 0.263 | 0.281 | 0.316 | 0.309 | 0.338
5 | NCI-H1993 |  | 0.69 | 0.783 | 0.728 | 0.817 | 0.684 | 0.661 | 0.832 | 0.603 |  | 0.451 | 0.576 | 0.438 | 0.512 | 0.8 | 0.828 | 0.709 | 0.801 | 0.789
6 | SK-LU-1 | 0.872 | 0.988 | 0.884 | 0.851 | 0.809 | 0.19 | 0.178 | 0.172 | 0.137 | 0.42 | 0.499 | 0.516 | 0.54 | 0.54 | 0.434 | 0.636 | 0.543 | 0.633 | 0.589
7 | NCI-H23 | 1.1 | 1.02 | 0.964 | 0.947 | 1.12 | 0.667 | 0.748 | 0.867 | 0.726 | 0.342 | 0.438 | 0.364 | 0.515 | 0.55 | 0.415 | 0.534 | 0.483 | 0.498 | 0.711
8 | HCC-366 | 1.01 | 0.956 | 0.974 | 0.969 | 0.938 | 0.563 | 0.621 | 0.644 | 0.54 | 0.319 | 0.328 | 0.346 | 0.365 | 0.413 | 0.0942 | 0.155 | 0.116 | 0.164 | 0.159
9 | EMC-BAC-2 |  | 0.991 | 1.01 | 1.02 | 1.06 | 0.335 | 0.319 | 0.323 | 0.305 |  | 0.965 | 0.897 | 0.931 | 1.1 | 0.457 | 0.576 | 0.623 | 0.579 | 0.604
10 | NCI-H3122 | 0.999 | 0.932 | 1.01 | 0.992 | 0.996 | 0.773 | 0.85 | 0.838 | 0.809 | 0.248 | 0.256 | 0.219 | 0.25 | 0.251 | 0.516 | 0.638 | 0.689 | 0.688 | 0.803
11 | SK-MES-1 | 0.95 | 0.985 | 0.951 | 0.951 | 1.1 | 0.32 | 0.413 | 0.455 | 0.33 | 0.537 | 0.555 | 0.621 | 0.725 | 0.628 | 0.39 | 0.365 | 0.391 | 0.379 | 0.335
12 | NCI-H2170 | 1.06 | 1.08 | 1.01 | 1.02 | 1.07 | 0.46 | 0.591 | 0.561 | 0.491 | 0.909 | 0.909 | 0.949 | 0.97 | 0.919 | 0.261 | 0.299 | 0.315 | 0.354 | 0.317
13 | EPLC-272H |  | 0.762 | 0.693 | 0.758 | 0.793 | 0.359 | 0.33 | 0.376 | 0.279 |  | 0.278 | 0.281 | 0.251 | 0.285 | 0.264 | 0.335 | 0.27 | 0.35 | 0.274
14 | NCI-H1915 | 1.04 | 1.09 | 1.1 | 1.06 | 0.983 | 0.308 | 0.33 | 0.27 | 0.267 | 0.294 | 0.312 | 0.355 | 0.336 | 0.347 | 0.905 | 0.972 | 0.976 | 0.971 | 0.899
15 | NCI-H647 | 1.13 | 0.974 | 1.14 | 0.925 | 0.854 | 0.159 | 0.171 | 0.211 | 0.117 | 0.377 | 0.48 | 0.487 | 0.609 | 0.439 | 0.319 | 0.532 |  | 0.542 | 0.508
16 | NCI-H441 | 0.974 | 1.14 | 0.859 | 1 | 0.857 | 0.72 | 0.53 | 0.539 | 0.406 | 0.5 | 0.445 | 0.474 | 0.563 | 0.734 | 0.449 | 0.52 | 0.573 | 0.603 | 0.39
17 | NCI-H2228 | 0.938 | 1.01 | 0.764 | 0.792 | 0.993 | 0.372 | 0.515 | 0.462 | 0.393 | 0.353 | 0.501 | 0.425 | 0.32 | 0.759 | 0.46 | 0.386 | 0.328 | 0.393 | 0.511
